# Source: patent US20250340537A1, “PHARMACEUTICALLY ACTIVE COMPOUNDS, COMPOSITIONS, AND METHODS FOR MODULATING PENDRIN” (ARBORMED Co., Ltd., priority 2022, published 2025)
# Legend:
# Assay type in all cases: cell-based
# H723R-hPDS = target: T1, H723R-hPDS (Homo sapiens, UniProt O43511, H723R); assay: Surface biotinylation assay; conditions: Panc1 hPDS-H723R cells, 24 h treatment
# T1 construct: expressed in transfected cells; host or cells: Panc1 (Panc1^hPDS-H723R)
# T1 sequence (O43511 1-780 H723R): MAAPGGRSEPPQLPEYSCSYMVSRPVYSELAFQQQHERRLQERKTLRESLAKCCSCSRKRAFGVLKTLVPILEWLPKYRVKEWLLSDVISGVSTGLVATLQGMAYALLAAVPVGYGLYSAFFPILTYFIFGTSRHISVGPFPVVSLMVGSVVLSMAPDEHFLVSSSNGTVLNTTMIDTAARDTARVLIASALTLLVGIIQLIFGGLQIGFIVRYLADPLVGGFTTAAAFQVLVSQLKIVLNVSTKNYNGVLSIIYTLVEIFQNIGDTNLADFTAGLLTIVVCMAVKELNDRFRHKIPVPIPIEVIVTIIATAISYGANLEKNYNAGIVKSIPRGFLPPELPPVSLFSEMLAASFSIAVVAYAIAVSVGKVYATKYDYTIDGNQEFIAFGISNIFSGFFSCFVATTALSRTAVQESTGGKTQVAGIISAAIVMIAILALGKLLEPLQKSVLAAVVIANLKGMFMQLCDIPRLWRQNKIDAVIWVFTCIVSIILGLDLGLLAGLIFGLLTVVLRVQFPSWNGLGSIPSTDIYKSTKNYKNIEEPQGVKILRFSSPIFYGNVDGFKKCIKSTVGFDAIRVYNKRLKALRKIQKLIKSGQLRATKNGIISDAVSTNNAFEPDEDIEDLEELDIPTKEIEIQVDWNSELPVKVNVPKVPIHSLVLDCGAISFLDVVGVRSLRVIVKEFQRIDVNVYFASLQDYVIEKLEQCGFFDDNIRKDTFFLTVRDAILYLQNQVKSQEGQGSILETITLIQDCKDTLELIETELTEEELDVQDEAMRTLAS
# Description: Surface biotinylation is a commonly used technique to specifically isolate plasma membrane proteins using a modified biotin in a form that is easy to bind with proteins. Sulfo-NHS-SS-biotin is a generally used reagent in surface biotinylation due to its impermeability and water solubility. In cool conditions, the extracellular domain of membrane proteins is covalently binding with the reactive biotin ester. These proteins are separated from the whole lysate via a biotin-streptavidin response. In this process, we can validate the increasing rate of the expression level of mutant pendrin in the plasma membrane.
# Panc1^parental, Panc1^hPDS-WT and Panc1^hPDS-H723R cells were cultured in high glucose DMEM medium supplemented with 10% fetal bovine serum and 1% antibiotics. 24 hours after seeding in 6-well plates, cells were treated as indicated for 24 h. Cells were washed in PBS and incubated on ice with 0.3 mg/ml biotin in PBS. After 35 min, 1% BSA in PBS, D.W mixture (1:1) was added to cells, and cells were incubated for 10 min. Cells were washed and lysed in lysis buffer. The lysates were sonicated for 20 seconds, and not boiled. After centrifugated, the supernatants were collected and quantified via BCA analysis. The quantified supernatants were added to 10% avidin beads in PBS and incubated overnight at 4° C. After incubation, the below steps were repeated 4 times: i) centrifugation, ii) removing the supernatant, iii) washing with lysis buffer. After the last centrifugation and removing the supernatant, the sample buffer mixed with reducing buffer was added to biotin-avidin mixtures. The elution was accomplished in the 38° C. bioshaker for 40 min and the supernatant was collected. The supernatant was separated by SDS-PAGE and transferred to an Immobilon membrane. After incubation in 5% BSA solution to prevent nonspecific binding, the membrane was incubated with specific antibodies overnight. Then, the membrane was washed with TBST buffer and incubated with HRP-conjugated anti-rabbit or -mouse antibody for 1 hour. The ECL buffer and iBright were used for the visualization of protein bands. The respective protein band intensity was quantified by densitometric analysis using the NIH ImageJ program.
# It is indicated as expression % with the following key: A=Expression % greater than 100%; B=Expression % greater than 50%, but less than 100%; C=Expression % less than 50%.
# H723R-pendrin [1] = target: T2, H723R-pendrin (Homo sapiens, UniProt O43511, H723R); assay: YFP fluorescence quenching assay (Cl−/I− exchange activity of pendrin); conditions: PANC-1 cells stably expressing human H723R-pendrin and YFP-F46L/H148Q/I152L; compound incubation 20-24 hours; iodide influx
# T2 construct: expressed in transfected cells; host or cells: PANC-1
# T2 sequence (O43511 1-780 H723R): T1 sequence (O43511 1-780 H723R)
# Description: Halide sensor YFP F46L/H148Q/I152L is quenched by halide ion like Iodide. When such YFP is expressed in a cell, it expresses in the cytoplasm.
# To measure H723R-PDS activity, PANC-1 cells were stably transfected with halide sensors YFP-F46L/H148Q/I152L and H723R-PDS which has problems with membrane trafficking due to misfolding.
# If the cell-treated drug is a corrector for H723R-PDS, H723R-PDS will translocate normally to the plasma membrane.
# At this time, when treated with a high-concentration iodide solution outside the cell, iodide enters the cell due to the Cl−/I− exchange activity of pendrin, and the fluorescence of the halide sensor YFP decreases.
# PANC-1 cells were cultured in Dulbecco's Modified Eagle's Medium with 10% fetal bovine serum, 2 mM glutamine, 100 units/ml penicillin and 100 µg/ml streptomycin. For high-throughput screening, PANC-1 cells were stably transfected with human H723R-pendrin and halide sensor YFP-F46L/H148Q/I152L.
# PANC-1 cells expressing human H723R-pendrin and YFP-F46L/H148Q/I152L were plated in 96-well microplates at a density of 2×10^4 cells per well and grown for 20-24 hours at 37° C. (90% humidity 5% CO2). Then these cells were treated with 50 μl growth medium containing test compounds and incubated for 20-24 hours. For YFP quenching assay, each well of the 96-well plate was washed 2 times with 200 μl of PBS, and it was filled with 50 μl of HEPES-buffered solution (140 mM NaCl, 5 mM KCl, 1 mM MgCl2, 1 mM CaCl2, 10 mM D-glucose, 10 mM HEPES; pH 7.4 with NaOH). After 10 minutes of incubation at 37° C., the 96-well plate was moved on the FLUOstar Omega Microplate Reader (BMG Labtech, Ortenberg, Germany) for a fluorescence assay. Each well was assayed individually for H723R-pendrin mediated I^− influx by recording fluorescence (495±15 nm excitation, 520±20 nm emission) every 400 ms for 1 second (baseline). Then, 50 μL of NaI-substituted HEPES-buffered solution (NaI replacing NaCl) was added using a liquid injector at 1 second and YFP fluorescence was recorded every 400 ms for 10 seconds. The initial iodide influx rate was determined from the initial slope of fluorescence by nonlinear regression, after the infusion of iodide.
# It is indicated as EC50 with the following key: A=EC50 less than 5 uM; B=EC50 greater than 5 uM, but less than 10 uM; C=EC50 greater than 10 uM.
# H723R-pendrin [2] = target: T2, H723R-pendrin; assay: PTI assay (Cl−/HCO3− exchange activity); conditions: PANC-1 cells, BCECF pHi
# Description: Measurements of intracellular pH (pHi) in PANC-1 cells were performed with the pH-sensitive fluorescent probe 2′,7′-bis-(2-carboxyethyl)-5-(and-6)-carboxyfluorescein (BCECF) according to previously reported protocols. Briefly, cells were incubated with 2 μM BCECF acetoxy-methylester for 5 min and then perfused with a HCO3^−-buffered solution [containing 120 mM NaCl, 5 mM KCl, 1 mM MgCl2, 1 mM CaCl2, 10 mM d-glucose, 5 mM Hepes, and 25 mM NaHCO3 (pH 7.4)].
# BCECF fluorescence was recorded at excitation wavelengths of 490 and 440 nm at a resolution of 2/s on a recording setup. The Cl^−/HCO3^− exchange activities were estimated from the initial rate of pHi increase as a result of Cl^− removal from the HCO3^−-containing buffer (25 mM HCO3^− with 5% CO2).
# The pHi calibration was performed with standard pH solutions containing 150 mM KCl and 5 μM nigericin. The intrinsic buffer capacity (βi) was calculated by measuring ΔpHi in response to 5 to 40 mM NH4Cl pulses in Na^+-free solutions. Because the βi values were not substantially affected by transfection with the plasmids encoding for WT-pendrin or H723R-pendrin, the Cl^−/HCO3^− exchange activities were expressed as ΔpH unit/min without compensating for the buffer capacity.
# It is indicated as exchange % with the following key: A=Exchange % greater than 50%; B=Exchange % less than 50%.
SMILES,Surface expression % of H723R-hPDS relative to WT-hPDS (Glycosylated form pendrin) (H723R-hPDS; 3 uM),Surface expression % of H723R-hPDS relative to WT-hPDS (Glycosylated form pendrin) (H723R-hPDS; 10 uM),EC50 (H723R-pendrin [1]) [µM],"Cl−/HCO3− exchange, % of WT-hPDS (H723R-pendrin [2]; 3 uM)","Cl−/HCO3− exchange, % of WT-hPDS (H723R-pendrin [2]; 10 uM)"
COc1ccc(-c2cncc(C3=C(N)N(CC(C)C)CC3=O)n2)cc1OC [Compound 8],"B (B=Expression % greater than 50%, but less than 100%)",A (A=Expression % greater than 100%),< 5,,
CC(C)CN1CC(=O)C(c2cncc(-c3ccc(O)c(O)c3)n2)=C1N [Compound 13],A (A=Expression % greater than 100%),A (A=Expression % greater than 100%),< 5,,
COc1cc(-c2cncc(C3=C(N)N(c4ccccc4Cl)CC3=O)n2)ccc1O [Compound 28],A (A=Expression % greater than 100%),A (A=Expression % greater than 100%),< 5,B (B=Exchange % less than 50%),A (A=Exchange % greater than 50%)
NC1=C(c2cncc(-c3ccc(O)c(O)c3)n2)C(=O)CN1C1CCCC1 [Compound 33],A (A=Expression % greater than 100%),A (A=Expression % greater than 100%),< 5,,
NC1=C(c2cncc(-c3ccc(O)c(O)c3)n2)C(=O)CN1CCC1CCCC1 [Compound 46],"B (B=Expression % greater than 50%, but less than 100%)",A (A=Expression % greater than 100%),< 5,,
NC1=C(c2cncc(-c3ccc(O)c(O)c3)n2)C(=O)CN1CC1CCCCC1 [Compound 49],A (A=Expression % greater than 100%),A (A=Expression % greater than 100%),< 5,A (A=Exchange % greater than 50%),A (A=Exchange % greater than 50%)
NC1=C(c2cncc(-c3ccc(O)c(O)c3)n2)C(=O)CN1C1CCC(F)(F)C1 (stereo not shown) [Compound 62],"B (B=Expression % greater than 50%, but less than 100%)",A (A=Expression % greater than 100%),< 5,,
NC1=C(c2cncc(-c3ccc(O)c(O)c3)n2)C(=O)CN1CC1CCC1 [Compound 69],,,< 5,B (B=Exchange % less than 50%),A (A=Exchange % greater than 50%)
COc1cc(-c2cncc(C3=C(N)N(CC4CCCC4)CC3=O)n2)ccc1O [Compound 73],,,< 5,A (A=Exchange % greater than 50%),A (A=Exchange % greater than 50%)
